Source: patent US20220339122A1, “METHODS FOR THE TREATMENT OF DISEASES ASSOCIATED WITH DYSREGULATED ACTIVATION AND RECRUITMENT OF NEUTROPHILS” (Chang Gung University, priority 2021, published 2022)

Key:
human neutrophils [1] = experiment: Cytotoxicity assessed using LDH release; format: cell-based
Method: FIG. 1 Bletinib suppressed superoxide anion production in stimulated human neutrophils. Neutrophils (6×10^5 cells/mL) were incubated with 0.1% DMSO or […] bletinib for 5 min before activation with stimuli. Superoxide anion production was induced by (A) fMLF, (B) MMK-1, (C) NaF, or (D) PMA and then measured using ferricytochrome c reduction method. (E) Cytotoxicity was assessed using LDH release. (F) Superoxide scavenging capacity of bletinib was assessed in a xanthine/xanthine oxidase cell-free system. WST-1 reduction was measured through spectrophotometry at 450 nm, with 20 U/mL superoxide dismutase as the positive control.

human neutrophils [2] = experiment: NET photography (immunofluorescence and scanning electron microscopy); format: cell-based; conditions: 10 nM PMA; 1-10 μM bletinib
Method: Neutrophils (3×10^5 cells/mL) were incubated with DMSO or bletinib for 10 min before being activated with 10 nM PMA for 2 h. Neutrophils were fixed with 4% paraformaldehyde and treated with 5% goat serum blocking buffer for 1 h and then treated with […] anti-MPO (Abcam) and 5 μg/mL anti-NE (Merck Millipore) antibodies for 1 h. These cells were then treated with the Alexa 488 or 568-labelled secondary goat anti-rabbit antibody for another 1 h. Thereafter, the cells were washed with PBS and treated with 1 ng/mL Hoechst 33342 and ProLong Gold antifade reagent (Invitrogen, CA, USA). Immunofluorescence microscopy and scanning electron microscopy were both used to observe the NET formation of activated neutrophils.

Lyn (Y396) = experiment: Immunoblotting of neutrophil lysates, Lyn phosphorylation; format: cell-based, human; conditions: 0.1 μM fMLF-stimulated neutrophils
Method: (§1) Neutrophils incubated with bletinib or DMSO at 37° C. for 5 min were stimulated with 0.1 μM fMLF for 30 s. The proteins were separated from neutrophil lysates through electrophoresis (12% sodium dodecyl sulphate-polyacrylamide gel electrophoresis) and then transferred to nitrocellulose membranes. The target proteins were identified through immunoblotting with specific antibodies against p38, p-p38, Akt, p-Akt S473, ERK, p-ERK, INK, p-JNK, Src, p-SFKs Y416, p-Src Y416, Lyn, p-Lyn (Y396), Fgr, p-Fgr (Y412), Hck, p-Hck (Y410), Btk, p-Btk Y223, Vav, and p-Vav (Y174) as well as with HRP-conjugated secondary anti-rabbit antibody (Cell Signaling Technology). The signal intensity was detected and quantified using the UVP BioSpectrum Imaging System (Analytik Jena, USA).

Hck (Y410) = experiment: Immunoblotting of neutrophil lysates, Hck phosphorylation; format: cell-based, human; conditions: 0.1 μM fMLF-stimulated neutrophils
Method: as §1

Btk (Y223) = experiment: Immunoblotting of neutrophil lysates, Btk phosphorylation; format: cell-based, human; conditions: 0.1 μM fMLF-stimulated neutrophils
Method: as §1

human neutrophils [3] = experiment: Neutrophil adhesion to bEnd.3 cells; format: cell-based; conditions: 1-10 μM bletinib; fMLF/CB
Method: Human neutrophils (10^6 cells/mL) were labelled with Hoechst 33342 and then incubated with DMSO or Bletinib for 5 min. After centrifugation, the cells were resuspended and activated with 0.1 μM fMLF/1 μg/mL CB for 10 min before incubation with bEnd.3 cells at 37° C. for 30 min. After they were washed with HBSS, the cells were fixed with 4% paraformaldehyde and the neutrophils that adhered to the bEnd.3 cells were detected and quantified on a motorised inverted microscope (Olympus, Japan).
Adhesion and transmigration are both crucial steps in the neutrophil recruitment cascade during inflammation. In this example, to examine whether bletinib would interfere the adhesion and transmigration process, human neutrophils (10^6 cells/mL) were first labeled with Hoechst 33342, then pre-treated with bletinib (1-10 μM) and followed by stimulation with fMLF, then incubated with bEnd.3 cells in 37° C. for 30 min. […] Furthermore, IL-8 served as a chemotactic factor for the attraction of neutrophils.

CD18 (integrin β2) = experiment: Surface CD18 expression, flow cytometry; format: cell-based, human; conditions: 1-10 μM bletinib; 0.1 μM fMLF/CB
Method: Neutrophils (5×10^5 cells/mL) were incubated with bletinib or DMSO for 5 min and then activated through incubation with 0.1 μM fMLF/1 μg/mL CB for 5 min. After centrifugation at 200×g for 8 min at 4° C., the cells were resuspended in 5% bovine serum albumin with FITC-conjugated antibodies against CD18 or CD11b on ice in the dark for 15 min. The fluorescent intensity was then analysed through fluorescence-activated cell sorting.

BALB/c mice = experiment: LPS-induced ALI model in mice; format: in vivo; conditions: 25 mg/kg intraperitoneal
Method: A total of 24 male BALB/c mice were randomly divided into four groups (6 mice/group): vehicle alone, bletinib alone, LPS control, and bletinib treatment (bletinib+LPS). The mice were starved overnight and then intraperitoneally injected with 50 μL of bletinib (25 mg/kg) or 50 μL of vehicle (10% DMSO). ALI was induced through intratracheal spraying of 50 μL of LPS (from Escherichia coli O111:B4; 2 mg/kg) or 50 μL of 0.9% saline (in vehicle and bletinib alone group) under general anaesthesia with xylazine (6 mg/kg) and Zoletil 50 (30 mg/kg). Five hours later, mouse lungs were harvested after sacrifice and were frozen for myeloperoxidase (MPO) activity assay; they were also fixed with 10% formalin for histological sectioning and immunofluorescence staining.
The harvested lung tissues were washed with phosphate-buffered saline (PBS) and fixed with 10% formalin for 24 h. The samples were subsequently dehydrated, embedded with paraffin, sliced into 3-μm-thick sections with a microtome, and placed on glass slides. These sections were stained using haematoxylin and eosin (H&E) and corresponding antibodies. Then, images were acquired through light microscopy.
For immunofluorescence staining, tissue sections were incubated with antibodies against H3 (citH3; citrulline R2+R8+R17) and Ly6G at dilutions of 1:800 and 1:200, respectively. Anti-IgG secondary antibodies labelled with a fluorescent dye (Alexa Fluor 488 for citH3 or Alexa Fluor 568 for Ly6G) were used at dilutions of 1:1000 and 1:500, respectively. Immunofluorescence images were acquired through confocal microscopy (LSM 510 Meta, Zeiss).
The mouse lung tissues were suspended in a 0.5% hexadecyltrimethylammonium bromide buffer (pH 6.0) and then homogenised through sonication. To evaluate MPO activity, the MPO substrate buffer (containing PBS, 0.0005% hydrogen peroxide, and 0.2 mg/mL 0-dianisidine hydrochloride) was added to the homogenised tissue, and the light absorbance at 460 nm was detected by spectrophotometry, after which, MPO activity was calculated with reference to the standard curve of human MPO activity.

COc1cc(O)cc(CCc2c(Cc3ccc(O)cc3)ccc(O)c2Cc2ccc(O)cc2)c1 [bletinib, 3,3′-dihydroxy-2′,6′-bis(p-hydroxybenzyl)-5-methoxybibenzyl]
cytotoxicity (LDH release) (human neutrophils [1]): did not exhibit cytotoxicity
NET formation, immunofluorescent staining and scanning electron microscopy images (human neutrophils [2]): effectively inhibited
phosphorylation of Lyn (Y396) (Lyn (Y396)): significantly inhibited
phosphorylation of Hck (Y410) (Hck (Y410)): significantly inhibited
phosphorylation of Btk (Y223) (Btk (Y223)): significantly inhibited
adhesion function of fMLF-activated neutrophils (adhered on bEnd.3 cells) (human neutrophils [3]): inhibited
expression of CD18 in fMLF-stimulated human neutrophils (CD18 (integrin β2)): significantly attenuated
MPO activity in the mouse lung tissues (BALB/c mice; 5 h after LPS spraying): significantly ameliorated
total protein levels in the mouse lung tissues (BALB/c mice; 5 h after LPS spraying): significantly ameliorated
LPS-activated phosphorylation of Vav (p-Vav) in lung sections (BALB/c mice; intratracheal LPS for 5 h): attenuated
LPS-induced NET formation (Ly6G+citH3+ cell accumulation) in lung (BALB/c mice; intratracheal LPS for 5 h): considerably reduced
distortion of the pulmonary architecture (lung histology) (BALB/c mice; intratracheal LPS for 5 h): significantly suppressed
